Structures can show the parent of a compound that is named as a salt.
Tests used:
[1] = target: T1, human, citrated, platelet-rich plasma (Homo sapiens, UniProt P05106+P08514); assay: test (a): inhibition of ADP stimulated platelet aggregation in human, citrated, platelet-rich plasma; assay type: cell-based; settings: read-out: pA2 (converted)
T1 construct: aggregating human, citrated, platelet-rich plasma; endogenous in cells; host or cells: human platelets in citrated platelet-rich plasma
From the text: (i) aggregating human, citrated, platelet-rich plasma by addition of adenosine diphosphate (ADP) so as to generate a dose-response curve;
(ii) generating a dose-response curve for ADP stimulated platelet aggregation in the presence of increasing amounts of a test compound (generally in the range 10^-5 M to 10^-10 M); and
(iii) calculating a pA2 value indicating potency of platelet aggregation inhibition for the test compound, averaged over several concentrations, from the calculated 50% response value for ADP aggregation in the presence and absence of the test compound.

[2] = target: T2, purified human platelet fibrinogen receptor (GPIIb/IIIa) (Homo sapiens, UniProt P05106+P08514); assay: test (b): GPIIb/IIIa ELISA, inhibition of biotinylated fibrinogen binding; settings: 50% inhibition of biotinylated fibrinogen binding to GPIIb/IIIa
T2 construct: Glycoprotein IIb/IIIa is isolated from human platelet lysates; from tissue
Procedure: (i) Preparation of human platelet lysates
Platelet rich plasma (prp) is harvested by centrifugation (1000 rpm, 15 minutes) of whole blood anticoagulated with acid citrate dextrose (trisodium citrate 85 mM, citric acid 70 mM, d-glucose 110 mM) 1 part to 6 parts blood. Prostacyclin (PGI2, 1 μM) is added to the prp before centrifugation (2400 rpm, 15 min) and the resulting pellet is resuspended in modified Tyrodes' solution (NaCl 130 mM, […], NaHCO3, 12 mM, NaH2 PO4 0.5 mM, MgCl2 1 mM, CaCl2 20 mM, Glucose 12 mM, HEPES 5 mM) containing bovine serum albumin 3.5 g/L, PGI2 1 μM and hirudin 0.5 U/ml. The platelet suspension is centrifuged (2400 rpm, 15 minutes) and the resultant pellet resuspended in 500 μl of lysis buffer (octyl glucoside 50 mM, HEPES 10 mM, NaCl 150 mM, CaCl2 1 mM, MgCl2 1 mM, PMSF 1 mM, NEM 10 mM, leupeptin 0.1 mM), agitated at 4° C. for 15 minutes then centrifuged at 24000 rpm, 15 minutes. The supernatant is stored at 4° C. and the pellet re-suspended in 500 μl of lysis buffer. […]
96 well microtitre plates are coated with 100 μl purified human platelet fibrinogen receptor (GPIIb/IIIa) diluted in coating buffer (Tris-HCl 20 mM, NaCl 150 mM, CaCl2 1 mM, pH 7.4) and left overnight at 4° C. […] Colour is allowed to develop for 10-15 minutes before optical densities are read at 650 nm. […]

T2 sequence (P08514 32-887 limits assumed): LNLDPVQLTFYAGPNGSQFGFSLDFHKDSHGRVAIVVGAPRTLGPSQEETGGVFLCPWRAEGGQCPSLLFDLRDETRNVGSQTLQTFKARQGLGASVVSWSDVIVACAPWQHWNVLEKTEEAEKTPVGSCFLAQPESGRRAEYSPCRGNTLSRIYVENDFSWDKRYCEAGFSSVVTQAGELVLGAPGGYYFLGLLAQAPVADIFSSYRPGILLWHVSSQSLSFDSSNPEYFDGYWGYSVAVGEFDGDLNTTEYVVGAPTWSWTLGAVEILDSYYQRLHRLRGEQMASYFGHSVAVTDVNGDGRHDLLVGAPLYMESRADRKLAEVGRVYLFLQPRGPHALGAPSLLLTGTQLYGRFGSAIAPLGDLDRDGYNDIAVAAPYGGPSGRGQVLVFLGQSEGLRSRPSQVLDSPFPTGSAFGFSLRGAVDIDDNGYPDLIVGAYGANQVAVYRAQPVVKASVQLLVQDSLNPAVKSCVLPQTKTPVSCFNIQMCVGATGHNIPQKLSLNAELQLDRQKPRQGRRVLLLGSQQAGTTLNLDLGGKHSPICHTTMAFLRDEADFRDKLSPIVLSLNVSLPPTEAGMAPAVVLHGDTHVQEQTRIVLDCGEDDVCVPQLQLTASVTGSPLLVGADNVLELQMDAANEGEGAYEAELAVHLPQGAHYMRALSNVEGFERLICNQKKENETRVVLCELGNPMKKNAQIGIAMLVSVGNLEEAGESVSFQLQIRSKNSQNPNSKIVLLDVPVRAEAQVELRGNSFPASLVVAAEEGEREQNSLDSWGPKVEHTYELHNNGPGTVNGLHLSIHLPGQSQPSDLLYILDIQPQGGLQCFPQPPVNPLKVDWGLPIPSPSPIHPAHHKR
T2 sequence (P08514 891-1039 limits assumed): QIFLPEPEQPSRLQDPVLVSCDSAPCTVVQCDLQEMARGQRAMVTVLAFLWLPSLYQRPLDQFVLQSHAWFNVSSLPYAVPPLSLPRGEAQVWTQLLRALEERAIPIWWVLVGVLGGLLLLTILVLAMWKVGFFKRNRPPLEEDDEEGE
T2 sequence (P05106 27-788): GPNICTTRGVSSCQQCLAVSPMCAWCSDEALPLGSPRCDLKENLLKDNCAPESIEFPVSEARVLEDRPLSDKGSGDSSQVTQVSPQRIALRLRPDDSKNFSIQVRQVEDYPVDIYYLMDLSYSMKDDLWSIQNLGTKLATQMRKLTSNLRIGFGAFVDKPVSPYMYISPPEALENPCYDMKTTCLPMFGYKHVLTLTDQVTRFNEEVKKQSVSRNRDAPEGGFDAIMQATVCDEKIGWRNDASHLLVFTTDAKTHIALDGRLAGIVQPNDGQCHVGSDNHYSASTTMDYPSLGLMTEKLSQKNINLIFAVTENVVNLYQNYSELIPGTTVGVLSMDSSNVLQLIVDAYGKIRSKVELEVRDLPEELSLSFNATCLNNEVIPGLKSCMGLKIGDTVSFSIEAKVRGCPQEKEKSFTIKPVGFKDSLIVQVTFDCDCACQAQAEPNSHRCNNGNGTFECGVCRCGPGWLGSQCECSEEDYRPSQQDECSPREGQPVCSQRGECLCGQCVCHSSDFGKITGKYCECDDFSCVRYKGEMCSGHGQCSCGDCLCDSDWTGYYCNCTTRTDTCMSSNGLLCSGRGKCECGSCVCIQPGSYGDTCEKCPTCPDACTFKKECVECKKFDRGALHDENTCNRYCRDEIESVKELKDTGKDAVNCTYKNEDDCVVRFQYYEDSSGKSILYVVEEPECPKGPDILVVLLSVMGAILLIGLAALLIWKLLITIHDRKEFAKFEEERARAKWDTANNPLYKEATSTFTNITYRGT
T1 sequence (P08514 32-887 limits assumed): as the sequence (P08514 32-887 limits assumed) above
T1 sequence (P08514 891-1039 limits assumed): as the sequence (P08514 891-1039 limits assumed) above
T1 sequence (P05106 27-788): as the sequence (P05106 27-788) above

Row | Kb [1] [nM] | IC50 [2] [nM] | SMILES
1 | 31.6 | 126 | COC(=O)COc1ccc(C(=O)NC(=O)Nc2ccc(C(=N)N)cc2)cc1 [Example 1, Methyl 4-[4-(4-amidinophenyl)allophoyl]phenoxyacetate, acetate salt]
2 | 25.1 | 25.1 | N=C(N)c1ccc(NC(=O)NC(=O)c2ccc(OCC(=O)O)cc2)cc1 [Example 2, 4-[4-(4-Amidinophenyl)allophanoyl]phenoxyacetic acid]
